According to EP2468741A1, “Novel quercetin derivatives, their preparation, pharmaceutical compositions containing them and their use” (Bel/Novamann International s.r.o., priority 2010, dated 2012):

Assay: Free radical inhibiting activity in vitro (DPPH)
Type: biochemical
Conditions: 50 µM DPPH in ethanol, 30 minutes, room temperature, decrease in OD, solvent control subtracted
Description: A 50 µM solution of 1,1-diphenyl-2-picrylhydrazyl (DPPH) in ethanol is added for 30 minutes at room temperature to a tested sample. The drop in absorbance is then measured and the results are given as the percentage decrease in OD caused by the test compound relative to the solvent used. The tested products are dissolved in ethanol (except product according to Example 7 when DMSO was used); the results (solvent control subtracted) are given as % free radical inhibiting activity as described in table 2.

Row | Molecule | Free radical inhibiting activity (dissolved in ethanol) [%] | Free radical inhibiting activity (dissolved in DMSO) [%]
1 | COc1cc(C=CC(=O)Oc2cc(O)c3c(=O)c(OC(=O)C=Cc4ccc(OCC=C(C)C)c(OC)c4)c(-c4ccc(OC(=O)C=Cc5ccc(OCC=C(C)C)c(OC)c5)c(OC(=O)C=Cc5ccc(OCC=C(C)C)c(OC)c5)c4)oc3c2)ccc1OCC=C(C)C [Example 8, 3-(O-prenylferuloyloxy)-2-(3,4-bis-(O-prenylferuloyloxy)phenyl)-7-(O-prenyl-feruloyloxy)-5-hydroxy-chromen-4-one] | 75 | 
2 | O=c1c(O)c(-c2ccc(O)c(O)c2)oc2cc(O)cc(O)c12 [Quercetin] | 62 | 
3 | CC(=O)Oc1ccccc1C(=O)Oc1cc(O)c2c(=O)c(OC(=O)c3ccccc3OC(C)=O)c(-c3ccc(OC(=O)c4ccccc4OC(C)=O)c(OC(=O)c4ccccc4OC(C)=O)c3)oc2c1 [Example 3, 3,7-bis-(2-acetylsalicyloyloxy)-2-(3,4-bis-(2-acetylsalicyloyloxy)phenyl)-5-hydroxy-chromen-4-one] | 82 | 
4 | 1,3-bis-butyryloxy-11a-hydroxy-9-(3,5,7-tributyryloxy-4H-1-benzopyran-4-on-2-yl)-5a-(3,4-bisbutyryloxyphenyl)-5,6,11-hexahydro-5,6,11-trioxanaphtacene-12-one [Example 7] |  | 95
